From US20240109972A1, “ANTIBODY AND TAXANE COMBINATION THERAPY” (Genmab A/S, priority 2020, published 2024)

Key:
interferon-gamma (IFN-γ) = assay: Serum interferon-γ levels in cancer patients after GEN1046 (MSD multiplex immunoassay); format: in vivo, human
Procedure: Serum levels of IFN-γ were measured by a Meso Scale Discovery (MSD) multiplex immune-assay (cat. no. K15209G) following the manufacturer's instructions.

[1] = tested on: effector memory CD8 T cells (CD8+CD45RA−CCR7− T cells); assay: Proliferating (Ki67+) effector memory CD8 T cells in peripheral blood of patients (flow cytometry); settings: human, in vivo
Procedure: 100 μL of whole blood was added to fluorochrome-conjugated monoclonal antibodies that bind specifically to cell surface antigens: CD45RA-FITC (clone LEU-18, BD Biosciences cat. no. 335039), CCR7-BV510 (clone 3D12, BD Biosciences, cat. no. 563449), CD8-PerCP-Cy5.5 (clone RPA-T8, BD Biosciences, cat. no. 560662). After incubation on ice, the stained samples were treated with FACS Lysing Solution (BD Biosciences, Catalog No 349202) to lyse erythrocytes. Excess antibody and cell debris were removed by washing with Stain Buffer (BD Biosciences, cat. no. 554656). Following lyse/wash, cells were fixed and permeabilized by incubation with Permeabilizing Solution 2 buffer (BD Biosciences, cat. no. 340973). Next, cells were washed and resuspended in Stain Buffer and incubated on ice with antibody to Ki67 (BV421 B56, BD Biosciences, cat. no. 562899) to detect proliferating cells. After incubation, excess antibody was removed by washing with Stain Buffer. Cells were resuspended in Stain Buffer and acquired on a BD FACSCanto™ II flow cytometer (Becton Dickinson) within 1 hour of staining.

“GEN1046: PD-L1×4-1BB bispecific antibody: PD-L1-547-FEAL combined with CD137-009-HC7LC2-FEAR (SEQ ID NOs: 1, 5, 21, 19; 8, 12, 22, 20)” was tested, and the “Dose levels with higher magnitude and consistent modulation of peripheral pharmacodynamic endpoints” value (interferon-gamma (IFN-γ); IFNγ and proliferating Ki67+ effector memory CD8+ T cells) was no less than 200 mg, the “Dose levels with maximal increases of IFN-γ” value (interferon-gamma (IFN-γ); first treatment cycle) was 50 mg and 80 mg and the “Increase of IFN-γ levels” value (interferon-gamma (IFN-γ); first treatment cycle, across all dose levels tested) was “more than 2 fold”. For the same substance, the “Cohort with maximal and more consistent modulation of proliferating CD8+ effector memory T cells” value [1] was 80 mg.
